{"source": "patent US9765105B2", "about": "“Macrolide compound” (Pulike Biological Engineering, Inc., priority 2013, dated 2017)", "key": {"[1]": {"system": "Staphylococcus aureus CVCC26003", "test": "in vitro susceptibility, MIC by mini broth dilution", "assay_type": "cell-based", "conditions": "strain CVCC26003", "procedure,_shortened": "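S. aureus CVCC26003 was revived and subcultured twice, 20 h each at 35° C, on solid medium, then diluted 1:200 in CAMHB liquid medium. Compounds received an 11-step two-fold DMSO dilution in parallel duplicate rows. MIC was read by mini broth dilution per NCCLS guidance.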"}, "[2]": {"system": "Actinobacillus pleuropneumoniae CVCC262", "test": "in vitro susceptibility, MIC by mini broth dilution", "assay_type": "cell-based", "conditions": "strain CVCC262", "procedure,_shortened": "(§1)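 Broth microdilution MIC, NCCLS method: 11-point two-fold DMSO compound series, duplicate rows, well 12 as control. Inoculum from 20 h, 35° C plate cultures, diluted 1:200 in broth.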"}, "[3]": {"system": "Haemophilus parasuis", "test": "in vitro susceptibility, MIC by mini broth dilution", "assay_type": "cell-based", "procedure,_shortened": "as §1"}, "[4]": {"system": "Pasteurella multocida CVCC399", "test": "in vitro susceptibility, MIC by mini broth dilution", "assay_type": "cell-based", "conditions": "strain CVCC399", "procedure,_shortened": "as §1"}, "[5]": {"system": "Streptococcus equines CVCC556", "test": "in vitro susceptibility, MIC by mini broth dilution", "assay_type": "cell-based", "conditions": "strain CVCC556", "procedure,_shortened": "as §1"}, "[6]": {"test": "acute oral toxicity test, LD50 by improved karber method", "conditions": "for LD50 at 7 days: both, Konmin, mouse, in vivo, po"}, "[7]": {"system": "Streptococcus pneumoniae CMCC 31203", "test": "in vivo antibacterial test, survival of infected mice", "set-up": "species or system BALB/c mice", "conditions": "mice infected i.p. with Streptococcus pneumoniae; 5 mg per kg subcutaneous for 3 consecutive days; observed until the seventh day"}}, "data": [{"compound": "CCCN1C[C@H](C)[C@@H](O)[C@](C)(O)[C@@H](CC)OC(=O)[C@H](C)[C@@H](O[C@H]2C[C@@](C)(OC)[C@@H](O)[C@H](C)O2)[C@H](C)[C@@H](O[C@@H]2O[C@H](C)C[C@H](N(C)C)[C@H]2O)[C@](C)(O)C[C@H]1C", "note": "[Gamithromycin, reference compound]", "values": [{"measurement": "MIC values, Staphylococcus aureus CVCC26003", "setting": "[1]", "value": 0.25, "unit": "ug/mi"}, {"measurement": "MIC values, Actinobacillus pleuropneumoniae CVCC262", "setting": "[2]", "value": 0.25, "unit": "ug/mi"}, {"measurement": "MIC values, Haemophilus parasuis", "setting": "[3]", "value": 0.25, "unit": "ug/mi"}, {"measurement": "MIC values, Pasteurella multocida CVCC399", "setting": "[4]", "value": 0.25, "unit": "ug/mi"}, {"measurement": "MIC values, Streptococcus equines CVCC556", "setting": "[5]", "value": 0.5, "unit": "ug/mi"}, {"measurement": "LD50", "setting": "[6]; per os, gavaged once, in 0.2% sodium carboxymethylcellulose, observed 7 days", "value": 2165.2, "unit": "mg/kg"}]}, {"compound": "CCCCNC[C@]1(O)[C@H](C)OC(O[C@@H]2[C@@H](C)[C@@H](O[C@@H]3O[C@H](C)C[C@H](N(C)C)[C@H]3O)[C@](C)(O)C[C@@H](C)NC[C@@H](C)[C@H](O)[C@](C)(O)[C@H](CC)OC(=O)[C@@H]2C)C[C@@]1(C)OC", "note": "(stereo partly drawn) [syzx-2, (2R,3S,4R,5S,8R,10R,11R,12S,13S,14R)-13-[(2,6-dideoxy-3-C-methyl-3-O-methyl-4-C-[(butylamino)methyl]-α-L-ribopyranosyl)oxy]-2-ethyl-3,4,10-trihydroxy-3,5,8,10,12,14-hexamethyl-11-[[3,4,6-trideoxy-3-(dimethylamino)-β-D-xylo-hexopyranosy]oxy]-1-oxa-7-azacyclopentadecan-15-one]", "values": [{"measurement": "Animal survival rate (surviving/total animals)", "setting": "[7]", "value": "8/10"}, {"measurement": "LD50 at 7 days", "setting": "[6]", "value": 2550, "unit": "mg/kg"}]}, {"compound": "CC[C@@H]1OC(=O)[C@H](C)[C@H](OC2C[C@@](C)(OC)[C@](O)(CN(CC)CC)[C@H](C)O2)[C@@H](C)[C@@H](O[C@@H]2O[C@H](C)C[C@H](N(C)C)[C@H]2O)[C@](C)(O)C[C@@H](C)NC[C@@H](C)[C@H](O)[C@]1(C)O", "note": "(stereo partly drawn) [syzx-3, (2R,3S,4R,5S,8R,10R,11R,12S,13S,14R)-13-[(2,6-dideoxy-3-C-methyl-3-O-methyl-4-C-[(diethylamino)methyl]-α-L-ribopyranosyl)oxy]-2-ethyl-3,4,10-trihydroxy-3,5,8,10,12,14-hexamethyl-11-[[3,4,6-trideoxy-3-(dimethylamino)-β-D-xylo-hexopyranosy]oxy]-1-oxa-7-azacyclopentadecan-15-one]", "values": [{"measurement": "Animal survival rate (surviving/total animals)", "setting": "[7]", "value": "8/10"}, {"measurement": "LD50 at 7 days", "setting": "[6]", "value": 2490, "unit": "mg/kg"}]}, {"compound": "CC[C@@H]1OC(=O)[C@H](C)[C@H](OC2C[C@@](C)(OC)[C@](O)(CNC3CCCC3)[C@H](C)O2)[C@@H](C)[C@@H](O[C@@H]2O[C@H](C)C[C@H](N(C)C)[C@H]2O)[C@](C)(O)C[C@@H](C)NC[C@@H](C)[C@H](O)[C@]1(C)O", "note": "(stereo partly drawn) [syzx-30, (2R,3S,4R,5S,8R,10R,11R,12S,13S,14R)-13-[(2,6-dideoxy-3-C-methyl-3-O-methyl-4-C-[(cyclopentylamino)-methyl]-α-L-ribopyranosyl)oxy]-2-ethyl-3,4,10-trihydroxy-3,5,8,10,12,14-hexamethyl-11-[[3,4,6-trideoxy-3-(dimethylamino)-β-D-xylo-hexopyranosy]oxy]-1-oxa-7-azacyclopentadecan-15-one]", "values": [{"measurement": "Animal survival rate (surviving/total animals)", "setting": "[7]", "value": "8/10"}]}, {"compound": "CC[C@@H]1OC(=O)[C@H](C)[C@H](OC2C[C@@](C)(OC)[C@](O)(CNCc3cccc(OC)c3)[C@H](C)O2)[C@@H](C)[C@@H](O[C@@H]2O[C@H](C)C[C@H](N(C)C)[C@H]2O)[C@](C)(O)C[C@@H](C)NC[C@@H](C)[C@H](O)[C@]1(C)O", "note": "(stereo partly drawn) [syzx-35, (2R,3S,4R,5S,8R,10R,11R,12S,13S,14R)-13-[(2,6-dideoxy-3-C-methyl-3-O-methyl-4-C-[[3-methoxybenzyl-amino]-methyl]-α-L-ribopyranosyl)oxy]-2-ethyl-3,4,10-trihydroxy-3,5,8,10,12,14-hexamethyl-11-[[3,4,6-trideoxy-3-(dimethylamino)-β-D-xylo-hexopyranosy]oxy]-1-oxa-7-azacyclopentadecan-15-one]", "values": [{"measurement": "Animal survival rate", "setting": "[7]", "value": 70, "unit": "%"}, {"measurement": "Animal survival rate (surviving/total animals)", "setting": "[7]", "value": "7/10"}]}, {"compound": "CCCCCNC[C@]1(O)[C@H](C)OC(O[C@@H]2[C@@H](C)[C@@H](O[C@@H]3O[C@H](C)C[C@H](N(C)C)[C@H]3O)[C@](C)(O)C[C@@H](C)NC[C@@H](C)[C@H](O)[C@](C)(O)[C@H](CC)OC(=O)[C@@H]2C)C[C@@]1(C)OC", "note": "(stereo partly drawn) [syzx-47, (2R,3S,4R,5S,8R,10R,11R,12S,13S,14R)-13-[(2,6-dideoxy-3-C-methyl-3-O-methyl-4-C-[[n-pentyl-amino]-methyl]-α-L-ribopyranosyl)oxy]-2-ethyl-3,4,10-trihydroxy-3,5,8,10,12,14-hexamethyl-11-[[3,4,6-trideoxy-3-(dimethylamino)-β-D-xylo-hexopyranosy]oxy]-1-oxa-7-azacyclopentadecan-15-one]", "values": [{"measurement": "Animal survival rate (surviving/total animals)", "setting": "[7]", "value": "9/10"}]}, {"compound": "CC[C@@H]1OC(=O)[C@H](C)[C@H](OC2C[C@@](C)(OC)[C@](O)(CNCc3cnc(C)cn3)[C@H](C)O2)[C@@H](C)[C@@H](O[C@@H]2O[C@H](C)C[C@H](N(C)C)[C@H]2O)[C@](C)(O)C[C@@H](C)NC[C@@H](C)[C@H](O)[C@]1(C)O", "note": "(stereo partly drawn) [syzx-65, (2R,3S,4R,5S,8R,10R,11R,12S,13S,14R)-13-[(2,6-dideoxy-3-C-methyl-3-O-methyl-4-C-{[(5-methyl-pyrazin-2-yl-methyl)-amino]-methyl}-α-L-ribopyranosyl)oxy]-2-ethyl-3,4,10-trihydroxy-3,5,8,10,12,14-hexamethyl-11-[[3,4,6-trideoxy-3-(dimethylamino)-β-D-xylo-hexopyranosy]oxy]-1-oxa-7-azacyclopentadecan-15-one]", "values": [{"measurement": "Animal survival rate (surviving/total animals)", "setting": "[7]", "value": "9/10"}]}, {"compound": "CC[C@@H]1OC(=O)[C@H](C)[C@H](OC2C[C@@](C)(OC)[C@](O)(CNCCCOC)[C@H](C)O2)[C@@H](C)[C@@H](O[C@@H]2O[C@H](C)C[C@H](N(C)C)[C@H]2O)[C@](C)(O)C[C@@H](C)NC[C@@H](C)[C@H](O)[C@]1(C)O", "note": "(stereo partly shown) [syzx-66]", "values": [{"measurement": "Animal survival rate (surviving/total animals)", "setting": "[7]", "value": "8/10"}]}, {"compound": "CC[C@@H]1OC(=O)[C@H](C)[C@H](OC2C[C@@](C)(OC)[C@](O)(CNCC3CCCCC3)[C@H](C)O2)[C@@H](C)[C@@H](O[C@@H]2O[C@H](C)C[C@H](N(C)C)[C@H]2O)[C@](C)(O)C[C@@H](C)NC[C@@H](C)[C@H](O)[C@]1(C)O", "note": "(stereo partly shown) [syzx-67]", "values": [{"measurement": "Animal survival rate (surviving/total animals)", "setting": "[7]", "value": "8/10"}]}, {"compound": "CCCN1C[C@H](C)[C@@H](O)[C@](C)(O)[C@@H](CC)OC(=O)[C@H](C)[C@@H](O[C@H]2C[C@@](C)(OC)[C@](O)(CNc3cc(Cl)nc(Cl)n3)[C@H](C)O2)[C@H](C)[C@@H](O[C@@H]2O[C@H](C)C[C@H](N(C)C)[C@H]2O)[C@](C)(O)C[C@H]1C", "note": "[syzx-237]", "values": [{"measurement": "MIC values, Staphylococcus aureus CVCC26003", "setting": "[1]", "value": 2, "unit": "ug/mi"}, {"measurement": "MIC values, Actinobacillus pleuropneumoniae CVCC262", "setting": "[2]", "value": 4, "unit": "ug/mi"}, {"measurement": "MIC values, Haemophilus parasuis", "setting": "[3]", "value": 4, "unit": "ug/mi"}, {"measurement": "MIC values, Pasteurella multocida CVCC399", "setting": "[4]", "value": 8, "unit": "ug/mi"}, {"measurement": "MIC values, Streptococcus equines CVCC556", "setting": "[5]", "value": 0.25, "unit": "ug/mi"}]}, {"compound": "CCCN1C[C@H](C)[C@@H](O)[C@](C)(O)[C@@H](CC)OC(=O)[C@H](C)[C@@H](O[C@H]2C[C@@](C)(OC)[C@](O)(Cn3ccnc3C)[C@H](C)O2)[C@H](C)[C@@H](O[C@@H]2O[C@H](C)C[C@H](N(C)C)[C@H]2O)[C@](C)(O)C[C@H]1C", "note": "[syzx-238]", "values": [{"measurement": "MIC values, Staphylococcus aureus CVCC26003", "setting": "[1]", "value": 1, "unit": "ug/mi"}, {"measurement": "MIC values, Actinobacillus pleuropneumoniae CVCC262", "setting": "[2]", "value": 1, "unit": "ug/mi"}, {"measurement": "MIC values, Haemophilus parasuis", "setting": "[3]", "value": 1, "unit": "ug/mi"}, {"measurement": "MIC values, Pasteurella multocida CVCC399", "setting": "[4]", "value": 4, "unit": "ug/mi"}, {"measurement": "MIC values, Streptococcus equines CVCC556", "setting": "[5]", "value": 0.25, "unit": "ug/mi"}]}, {"compound": "CCCN1C[C@H](C)[C@@H](O)[C@](C)(O)[C@@H](CC)OC(=O)[C@H](C)[C@@H](O[C@H]2C[C@@](C)(OC)[C@](O)(CN(C)CCO)[C@H](C)O2)[C@H](C)[C@@H](O[C@@H]2O[C@H](C)C[C@H](N(C)C)[C@H]2O)[C@](C)(O)C[C@H]1C", "note": "[syzx-239]", "values": [{"measurement": "MIC values, Staphylococcus aureus CVCC26003", "setting": "[1]", "value": 4, "unit": "ug/mi"}, {"measurement": "MIC values, Actinobacillus pleuropneumoniae CVCC262", "setting": "[2]", "value": 4, "unit": "ug/mi"}, {"measurement": "MIC values, Haemophilus parasuis", "setting": "[3]", "value": 2, "unit": "ug/mi"}, {"measurement": "MIC values, Pasteurella multocida CVCC399", "setting": "[4]", "value": 8, "unit": "ug/mi"}, {"measurement": "MIC values, Streptococcus equines CVCC556", "setting": "[5]", "value": 0.25, "unit": "ug/mi"}]}, {"compound": "(2R,3S,4R,5S,8R,10R,11R,12S,13S,14R)-13-[(2,6-dideoxy-3-C-methyl-3-O-methyl-4-C-[(thienylformyloxymethyl-2-amino)-methyl]-α-L-ribopyranosyl)oxy]-2-ethyl-3,4,10-trihydroxy-3,5,8,10,12,14-hexamethyl-11-[[3,4,6-trideoxy-3-(dimethylamino)-β-D-xylo-hexopyranosy]oxy]-1-oxa-7-azacyclopentadecan-15-one [syzx-77]", "values": [{"measurement": "MIC values, Staphylococcus aureus CVCC26003", "setting": "[1]", "value": 0.25, "unit": "ug/mi"}, {"measurement": "MIC values, Actinobacillus pleuropneumoniae CVCC262", "setting": "[2]", "value": 16, "unit": "ug/mi"}, {"measurement": "MIC values, Haemophilus parasuis", "setting": "[3]", "value": 0.25, "unit": "ug/mi"}, {"measurement": "MIC values, Pasteurella multocida CVCC399", "setting": "[4]", "value": 0.5, "unit": "ug/mi"}, {"measurement": "MIC values, Streptococcus equines CVCC556", "setting": "[5]", "value": 0.5, "unit": "ug/mi"}]}]}
